Measurements reported in patent US10092590B2, “Composition of HMB and ATP and methods of use” (Metabolic Technologies, Inc., priority 2012, dated 2018).

What was measured:
[1] = Perceived Recovery Status (PRS) scale; format: in vivo, human; conditions: over the 12-week study
Procedure: (§1) Prior to the study, participants were randomly assigned to receive either 3 g per day of HMB Free Acid (HMB) (combined with food-grade orange flavors and sweeteners), 400 mg per day of ATP (PEAK ATP®; TSI, Inc.), a combination of both 3 g of HMB and 400 mg per day of ATP, or a placebo (food-grade orange flavors and sweeteners) divided equally into three servings daily with the first serving given 30 minutes prior to exercise and the remaining two servings daily with the mid-day and evening meals. On the non-training days participants were instructed to consume one serving with each of three separate meals. The supplementation was continued daily throughout the training and testing protocols. Each serving was formulated with 1 gram of HMB free acid to account for fill and emptying variation and achieve a minimum effective dosage of 0.800 grams. This dosage would be equivalent to a 1 gram Ca-HMB dosage.
Perceived Recovery Status (PRS) scale was measured at weeks 0, 4, 8, 9, 10, and 12 to assess subjective recovery during the training phases. The PRS scale consists of values between 0-10, with 0-2 being very poorly recovered and with anticipated declines in performance, 4-6 being low to moderately recovered and expected similar performance, and 8-10 representing high perceived recovery with expected increases in performance.

[2] = system: skeletal muscle protein synthesis; conditions: acute ingestion of 2.4 grams; cited from earlier work
[3] = Body composition by dual x-ray absorptiometry (weight, lean body mass, fat); format: in vivo, human
[4] = system: total testosterone; experiment: Serum total testosterone, ELISA; format: in vivo, human; conditions: week 9 (overreaching); mean ± SEM
Procedure: as §1, with “dosage. […]” for “dosage.”
(§2) Samples were thawed one time and analyzed in duplicate for each analyte. […] All hormones were measured in the same assay on the same day to avoid compounded interassay variance. […] Serum creatine kinase (CK) was measured using colorimetric procedures at 340 nm (Diagnostics Chemicals, Oxford, Conn.). Twenty-four hour urine collections were made and 3-methylhistine was determined by previously described methods (Rathmacher et al 1992 and Wilson et al, 2013).

[5] = system: cortisol; experiment: Serum cortisol, ELISA; format: in vivo, human; conditions: week 9 (overreaching); mean ± SEM
Procedure: as §1, with “dosage. […]” for “dosage.”
as §2

[6] = system: creatine kinase (CK); experiment: Serum creatine kinase (muscle damage), colorimetric; format: in vivo, human; conditions: week 9 (overreaching); mean ± SEM
Procedure: as §1, with “dosage. […]” for “dosage.”
as §2

[7] = Skeletal muscle hypertrophy, ultrasonography quadriceps muscle thickness (VL and VI); format: in vivo, human; conditions: week 8 of study

SMILES	effect on PRS [1]	decrease in protein breakdown [2] [%]	increase in skeletal muscle protein synthesis [2]	DXA LBM ([3]; week 4 of study) [kg]	DXA Fat ([3]; week 8 of study) [%]	DXA LBM ([3]; week 8 of study) [kg]	Total Testosterone [4] [ng/dL]	Cortisol [5] [µg/dL]	CK [6] [IU/L]	Quad (quadriceps muscle thickness) [7] [mm]
Nc1ncnc2c1ncn2[C@@H]1O[C@H](COP(=O)(O)OP(=O)(O)OP(=O)(O)O)[C@@H](O)[C@H]1O [ATP, Adenosine-5′-triphosphate]	no main effect	–	–	–	–	–	–	–	–	–
CC(C)(O)CC(=O)O [HMB-FA, β-hydroxy-β-methylbutyric acid]	–	−56	+70%	69.2 ± 2.7	15.9 ± 1.5	71.3 ± 2.7	752 ± 61	19.6 ± 1.1	288 ± 18	56.0 ± 1.4
